# Patent US10519160B2, “Imaging agents for neural flux” (The General Hospital Corporation, priority 2014, dated 2019)
# Experiments:
# [1] = test system: olfactory epithelium; test: PET-MR imaging of radiotracer uptake in non-human primate; type: in vivo, rhesus macaque; settings: NHPs
# Method: The non-human primates were initially anesthetized with ketamine, followed by maintenance with isoflurane. Animals were placed on the imaging bed and two lines were inserted, an IV line for tracer administration and an arterial line for blood sampling. The animals were scanned for 90 minutes, including time for the MR structural scan. During the scan and tracer injection, the heart and breathing rate of the animal were monitored. Tracer doses were 4-6 mCi (bolus or bolus-plus-infusion) with or without treatment with study compounds (nonradioactive ‘blocking agent’). Prior to tracer injection, the purified tracer was analyzed on an analytical HPLC instrument to determine the purity (must be >95% chemical purity, must be >99% radiochemical purity) and specific activity (must be >1.0 Ci·μmol^−1 of the compound). As standard practice for all NHP work, pyrogenicity, chemical and radiochemical stability, residual solvents, pH, and sterility (post injection) were tested for. For [^11C] radiolabeled compounds, paired studies were performed with radiotracer injections spaced >2.5 h apart. For [^18F] studies, paired studies were performed by assessing baseline and pretreatment effect on two separate days. […]
# [2] = test system: olfactory epithelium; test: PET imaging of radiotracer uptake and specific binding with unlabeled-compound pretreatment in rats; type: in vivo, Sprague-Dawley rat
# Source text: Prior to imaging, animals were anesthetized with isoflurane and a catheter was placed in a lateral tail vein. An extension line was used to attach the catheter to a syringe with heparinized saline, which was used to prevent clotting of the line and catheter. Animals were then placed in one of two instruments (a GammeMedicaTriumph PET/CT/SPECT scanner or a Siemens R4 PET scanner) and maintained under isoflurane anesthesia for the imaging period. For scans completed in the Triumph scanner, CT images of the animals were taken for PET image attenuation. For animals imaged in the R4, a Germanium (Ge) 68 or a Cobalt (Co) 57 line source was used to create an attenuation correction map. Following imaging, animals were placed in their cages and monitored until they recovered from the anesthesia.
# Male Sprague-Dawley rats were imaged with [^11C] radiolabeled N-benzyl-2-fluoro-9-methyl-9H-purin-6-amine following treatment with [^12C] radiolabeled N-benzyl-2-fluoro-9-methyl-9H-purin-6-amine to determine the specific binding of the radiotracer in the olfactory epithelium. Animals were injected with [^12C] radiolabeled N-benzyl-2-fluoro-9-methyl-9H-purin-6-amine (i.v.; 16 mg/kg; 4 mg/mL in 10% DMSO, 10% Tween 20, and 80% saline). After 5 min, animals were injected with [^11C] radiolabeled N-benzyl-2-fluoro-9-methyl-9H-purin-6-amine (0.3-1.5 mCi), in 10% ethanol, 90% saline). [^11C] […] Although [^11C] […] N-benzyl-2-fluoro-9-methyl-9H-purin-6-amine binding in the presence of unlabeled N-benzyl-2-fluoro-9-methyl-9H-purin-6-amine, shown in FIG. 1A-1D.
# Animals were injected with an unlabeled N-benzyl-2-fluoro-9-methyl-9H-purin-6-amine (0.1-16 mg/kg in 10% DMSO, 10% Tween 20, and 80% saline). Following this, animals were injected with [^11C] radiolabeled N-benzyl-2-fluoro-9-methyl-9H-purin-6-amine (0.3-1.5 mCi, in 10% ethanol, 90% saline). For the self-blocking dose-response study, the animals were co-administered with N-benzyl-2-fluoro-9-methyl-9H-purin-6-amine and [^11C] radiolabeled N-benzyl-2-fluoro-9-methyl-9H-purin-6-amine in 10% DMSO, 10% Tween 20, 10% ethanol and 70% saline in 1 mL.
# [3] = PET, i.v. radiotracer, male Sprague-Dawley rats
smiles,measurement,setting,value
[11CH3]n1cnc2c(NCc3ccccc3)nc(F)nc21 [[^11C] Radiolabeled N-benzyl-2-fluoro-9-methyl-9H-purin-6-amine],specific binding in the nasal cavity,[1],specific binding is present in the nasal cavity
same,change of radiotracer binding in the presence of unlabeled N-benzyl-2-fluoro-9-methyl-9H-purin-6-amine,[1]; nasal cavity,decrease
same,non-specific binding,"[2]; PET, brain",low non-specific binding
same,specific binding in the brain,"[2]; PET, brain",limited specific binding in the brain
same,initial uptake in the brain,[2]; [3],high initial uptake in the brain
same,removal from the brain,[2]; [3],fast removal from the brain
same,specific binding in the nasal cavity,"[2]; PET, nasal cavity where olfactory receptor neurons are located, rats",specific binding in the nasal cavity
same,change of radiotracer binding in the presence of unlabeled N-benzyl-2-fluoro-9-methyl-9H-purin-6-amine,"[2]; nasal cavity, rats, unlabeled compound i.v. 16 mg/kg 5 min before tracer",decrease
